Test results reported in patent US12486255B2, “Modulators of RAS GTPase” (Tosk, Inc., priority 2018, dated 2025).

How the values were obtained:
[1] = Multi-day safety study in mice; assay type: in vivo; conditions: female CD1 mice, 2 mg/kg ip daily for 6 days
Description: The multi-day safety study used female, 10 week old, CD1 mice (4/treatment group) dosed with DMSO. Mice were administered 2 mg/kg of Structure 2 or 10 mg/kg Structure 3, ip, daily for 6 days and evaluated for changes clinical chemistry values, hematology values and animal weight as well as signs of health and grooming habits.
Heparinized blood samples were obtained by retro-orbital puncture on Day 6, 12 hours after the last dose of Structure 2. The plasma harvested from the blood was analyzed for standard clinical chemistry parameters (ALB. ALP, ALT, AMY, TBIL, BUN, CA, PHOS, CRE GLU, NA, K, TP & GLOB) and hematology (WBC, LYM, MON, GRA, RBC, HGB, HCT, MCV, MCH, MCHC, RDWc, PLT, PCT, MPV, PDWc) analytes (see definitions herein). Animal weight changes were also monitored. Values for all analytes were analyzed by one way ANOVA plus post-hoc Bonferroni using SPSS (IBM, Armonk, NY).

[2] = test system: phosphorylated ERK 1/2 (T202/Y204); experiment: Phosphorylated ERK bioassay (Western blot, SW480 cells); assay type: cell-based, human; conditions: 3 μM, 24 hours, in the presence of serum
Description: As described herein, the main downstream target for kRAS is ERK (Samatar et al., Targeting RAS-ERK signaling in cancer: promises and challenges. Nat Rev Drug Discov. 2014; 13:928-42). kRAS activates ERK leading to phosphorylated ERK. A compound that suppresses kRAS activity is expected to lower phosphorylated ERK.
Test articles abrogate the expression of phosphorylated ERK (T202/Y204) SW480 cells were subjected to test article incubation at 3 μM for 24 hours in the presence of serum to mimic natural growth environment. Cells were extracted and total protein of samples normalized through BCA assay. Processed extracts were subjected to SDS-PAGE/Western blot and blotted for phosphorylated ERK 1/2 (T202/Y204); ERK 1/2; and α-Tubulin.
The compound U0126 in FIG. 8 is a MEK inhibitor which is known to suppress phosphorylation of ERK. The compound was tested along with the test articles to serve as a positive control.

[3] = test system: SW620 cells; experiment: Cytotoxicity assay, CellTiter-Glo 2.0, SW620 cells; assay type: cell-based; conditions: SW-620; SW620, human colon cancer cell line expressing mutant G12V kRAS; 48 hours
Description: FIG. 6, panels A-B, illustrate the cytotoxicity of Structure 2 and Structure 3 on SW620 Cells. The cytotoxicity of compounds of interest were tested against the human colon cancer cell line SW620 as described in the experimental section. SW620 cells express a mutant G12V kRAS. Compounds were incubated with cells for 48 hours and the assay was developed using Cell Titer Glo 2.0. IC50 values were determined using GraphPad Prism4.
(§1) Compounds were assayed for inhibition of cell proliferation and killing cancer cells. Cytotoxicity assays were conducted according to the following general procedure. SW480, SW48, SW900, SW620 were all maintained in Leibowitz L15 media supplemented with 10% fetal bovine serum and 1% PenStrep and grown in a 37° C. incubator without supplemental CO2. Capan-1 cells were maintained in Iscove's Modified Dulbecco's Medium (ATCC 30-2005) containing 20% fetal bovine serum and 1% PenStrep and grown in a 37° C. incubator containing 5% CO2.
For dose-response assays, SW480 cells were plated into 96 well plates (1 million/plate, ˜10,000/well, 250 μL media/well). Cells were allowed to settle and adhere to plate bottom overnight Compounds were placed in 500 μL media and mixed. Then 250 μL compounds+media was placed in an intermediate plate in row A. Rows B through H were filled with 125 μL media. […] Luminescence was read with FLx800 (BioTek Instruments).

[4] = test system: A431; experiment: Cytotoxicity assay, A431 cells; assay type: cell-based; conditions: A431, human epidermoid carcinoma cell line expressing wild type kRAS
Description: as §1

For Cc1nc(-c2ccc(CNC(=O)c3cc(CC(C)C)nn3C)cc2)no1 [Structure 2, 3-isobutyl-1-methyl-N-(4-(5-methyl-1,2,4-oxadiazol-3-yl)benzyl)-1H-pyrazole-5-carboxamide], the “body weight or grooming habits versus dosing vehicle treated animals” value [1] was “no statistically significant difference”, the “clinical chemistry changes versus dosing vehicle treated animals” value [1] was “no significant clinical chemistry changes” and the ALB ([1]; Day 6) was 3.88 ± 0.30 g/dL. It also gave an ALP ([1]; Day 6) of 66.50 ± 8.80 U/L, an ALT ([1]; Day 6) of 59.00 ± 32.50 U/L and an AMY ([1]; Day 6) of 871.50 ± 74.70 U/L. The BUN ([1]; Day 6) was 18.25 ± 4.10 mg/dL, the CRE ([1]; Day 6) was 0.34 ± 0.10 mg/dL and the “Ca^++” value ([1]; Day 6) was 9.43 ± 0.40 mg/dL. For the same compound, the GLOB ([1]; Day 6) was 1.23 ± 0.10 g/dL, the GLU ([1]; Day 6) was 234.25 ± 31.70 mg/dL and the GRA ([1]; Day 6) was 1.23 ± 0.20 10^9/l. For the same compound, the “GRA (%)” value ([1]; Day 6) was 19.03 ± 3.70%, the HCT ([1]; Day 6) was 44.34 ± 4.60% and the HGB ([1]; Day 6) was 15.23 ± 1.70 g/dL. The “K^+” value ([1]; Day 6) was 5.35 ± 0.40 mmol/L, the LYM ([1]; Day 6) was 5.17 ± 1.80 10^9/l and the “LYM (%)” value ([1]; Day 6) was 76.18 ± 3.50%. The MCH ([1]; Day 6) was 16.15 ± 0.40 pg, the MCHC ([1]; Day 6) was 34.35 ± 1.30 g/dL and the MCV ([1]; Day 6) was 47.00 ± 2.40 fL. For the same compound, the MON ([1]; Day 6) was 0.33 ± 0.10 10^9/l, the “MON (%)” value ([1]; Day 6) was 4.85 ± 0.40% and the MPV ([1]; Day 6) was 7.10 ± 0.60 fL. For the same compound, the “NA^+” value ([1]; Day 6) was 147.00 ± 0.80 mmol/L, the PCT ([1]; Day 6) was 0.31 ± 0.10% and the PDWc ([1]; Day 6) was 33.08 ± 3.40%. The PHOS ([1]; Day 6) was 8.13 ± 1.00 mg/dL, the PLT ([1]; Day 6) was 448.50 ± 193.10 10^9/l and the RBC ([1]; Day 6) was 9.44 ± 1.00 10^12/l. For the same compound, the RDWc ([1]; Day 6) was 17.40 ± 0.40%, the TBIL ([1]; Day 6) was 0.43 ± 0.00 mg/dL and the TP ([1]; Day 6) was 5.08 ± 0.20 g/dL. The WBC ([1]; Day 6) was 6.72 ± 2.00 10^9/l, the “phosphorylated ERK (T202/Y204)” value [2] was “dramatically decrease phosphorylated ERK” and the IC50 [3] was 55 nM. The “not cytotoxic at concentrations up to” value [4] was > 40 µM.
